Structures are written as SMILES. A value given as a limit tells only on which side of the number the result lay.

The target of series [1] is human GlyT1c transporter (Homo sapiens (Human), UniProt P48067). The series is described as follows: Radioligand binding assay using recombinant CHO cell membranes expressing human GlyT1. The following applies: read-out: radioligand binding Kiapp. How it is done:
2. Radioligand Binding Assays Using Recombinant CHO Cell Membranes Expressing Human GlyT1:
Radioligand binding to human GlyT1c transporter-expressing membranes was determined as described in Mezler et al., Molecular Pharmacology 74:1705-1715, 2008.

Series [2] has as its target MDR1 (P-gp) (Homo sapiens (Human), UniProt P08183). The series is described as follows: Efflux ratio in MDR1-MDCK bidirectional transport. It counts as in vitro ADME. The following applies: dog; MDR1-MDCK cell monolayers, 1 μM in HBSS-pH 7.4, 1 h incubation at 37 C. As to the method: 3. Determination of Efflux Ratio Using Madin-Darby Canine Kidney Type II Cells
Bidirectional transport experiments were performed on Madin-Darby Canine Kidney Type II cells over-expressing multidrug resistance protein 1 (MDR1-MDCK) to evaluate the compounds as potential P-gp substrates.
Compounds were added at 1 μM in HBSS-pH 7.4 (hanks balanced salt solution) to either the apical or basolateral side of MDR1-MDCK cell monolayers grown on Millicell 96-Cell polycarbonate filters. Samples were collected from both apical and basolateral sides at time 0 and after 1 h incubation at 37 C, compounds concentrations were measured by HPLC/MS/MS and permeability coefficients were then determined in both transport directions. The efflux ratio was subsequently calculated from the permeability coefficient.

Chain of human GlyT1c transporter (P48067 whole entry): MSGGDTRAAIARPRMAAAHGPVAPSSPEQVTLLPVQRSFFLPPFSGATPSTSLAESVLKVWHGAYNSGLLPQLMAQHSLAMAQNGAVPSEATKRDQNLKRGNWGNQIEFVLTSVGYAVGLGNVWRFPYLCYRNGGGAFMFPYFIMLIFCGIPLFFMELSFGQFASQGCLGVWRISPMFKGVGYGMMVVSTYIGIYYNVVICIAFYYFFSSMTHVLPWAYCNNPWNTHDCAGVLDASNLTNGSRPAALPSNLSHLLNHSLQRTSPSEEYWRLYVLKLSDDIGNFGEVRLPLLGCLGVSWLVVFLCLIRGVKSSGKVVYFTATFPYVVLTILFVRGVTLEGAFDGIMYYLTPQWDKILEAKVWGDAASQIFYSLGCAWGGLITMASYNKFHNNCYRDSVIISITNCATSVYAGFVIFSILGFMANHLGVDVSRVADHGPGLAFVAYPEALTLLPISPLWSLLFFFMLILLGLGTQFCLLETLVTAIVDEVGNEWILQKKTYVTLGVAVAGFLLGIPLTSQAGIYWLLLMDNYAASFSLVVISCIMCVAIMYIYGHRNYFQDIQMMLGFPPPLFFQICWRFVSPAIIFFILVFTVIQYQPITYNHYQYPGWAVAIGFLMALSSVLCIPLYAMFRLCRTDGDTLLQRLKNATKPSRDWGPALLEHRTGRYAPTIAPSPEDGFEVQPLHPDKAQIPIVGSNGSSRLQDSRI
Chain of MDR1 (P-gp) (P08183 whole entry, species assumed): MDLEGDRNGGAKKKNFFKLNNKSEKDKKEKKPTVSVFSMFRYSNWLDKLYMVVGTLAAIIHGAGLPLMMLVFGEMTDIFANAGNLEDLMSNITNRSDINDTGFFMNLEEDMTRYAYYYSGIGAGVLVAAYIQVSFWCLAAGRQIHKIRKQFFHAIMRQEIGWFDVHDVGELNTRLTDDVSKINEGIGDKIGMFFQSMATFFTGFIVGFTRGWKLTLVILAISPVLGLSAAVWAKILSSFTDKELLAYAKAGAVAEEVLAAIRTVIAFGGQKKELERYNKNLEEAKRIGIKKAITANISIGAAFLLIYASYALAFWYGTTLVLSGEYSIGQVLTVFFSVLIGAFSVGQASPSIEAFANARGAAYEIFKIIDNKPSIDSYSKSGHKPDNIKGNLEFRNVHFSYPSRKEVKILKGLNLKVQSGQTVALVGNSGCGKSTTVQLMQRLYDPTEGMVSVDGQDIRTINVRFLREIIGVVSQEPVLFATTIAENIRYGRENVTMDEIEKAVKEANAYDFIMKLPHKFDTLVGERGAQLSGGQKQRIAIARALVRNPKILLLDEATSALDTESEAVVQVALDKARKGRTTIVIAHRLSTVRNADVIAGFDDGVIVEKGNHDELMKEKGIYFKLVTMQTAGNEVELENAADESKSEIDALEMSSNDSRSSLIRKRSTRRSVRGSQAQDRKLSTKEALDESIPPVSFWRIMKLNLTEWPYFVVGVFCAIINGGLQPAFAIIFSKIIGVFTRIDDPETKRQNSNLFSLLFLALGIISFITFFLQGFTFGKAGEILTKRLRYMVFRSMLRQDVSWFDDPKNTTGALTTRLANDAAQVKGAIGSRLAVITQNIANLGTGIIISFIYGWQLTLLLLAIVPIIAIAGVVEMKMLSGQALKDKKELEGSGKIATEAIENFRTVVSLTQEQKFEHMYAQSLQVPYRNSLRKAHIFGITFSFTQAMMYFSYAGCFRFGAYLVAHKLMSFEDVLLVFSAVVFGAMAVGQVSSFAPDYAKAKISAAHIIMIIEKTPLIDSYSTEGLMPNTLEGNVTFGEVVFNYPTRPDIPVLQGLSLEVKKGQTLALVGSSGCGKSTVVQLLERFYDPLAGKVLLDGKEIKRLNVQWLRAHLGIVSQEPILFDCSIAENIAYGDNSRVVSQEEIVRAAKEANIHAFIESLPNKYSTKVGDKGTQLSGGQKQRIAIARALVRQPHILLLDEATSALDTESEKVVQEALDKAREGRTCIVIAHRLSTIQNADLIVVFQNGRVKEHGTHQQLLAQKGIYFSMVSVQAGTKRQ

Usually efflux ratio stands for a quotient of directional permeabilities that is used to spot active efflux. `Cn1cnc(S(=O)(=O)NCc2ccc3c(c2)C(Cc2ccccc2)C(N2CC4CC4C2)CC3)c1.O=C(O)/C=C/C(=O)O` (stereo not drawn) [Example 1, cis-N-({7-[3-Azabicyclo[3.1.0]hex-3-yl]-8-benzyl-5,6,7,8-tetrahydronaphthalen-2-yl}methyl)-1-methyl-1H-imidazole-4-sulfonamide(2E)-but-2-enedioate]: the Ki in series [1] is < 10 nM. Also, the efflux ratio at 1 h, 1 μM in series [2] was found to be 3.2.
`Cn1cnc(S(=O)(=O)NCCOc2ccc3c(c2)C(Cc2ccccc2)C(N2CC4CC4C2)CC3)c1` (centres unmarked) [Example 2, N-[2-({7-[3-Azabicyclo[3.1.0]hex-3-yl]-8-benzyl-5,6,7,8-tetrahydronaphthalen-2-yl}oxy)ethyl]-1-methyl-1H-imidazole-4-sulfonamide(2E)-but-2-enedioate]: the Ki in series [1] is < 10 nM.
Regarding `Cn1cc(S(=O)(=O)NCCOc2ccc3c(c2)C(Cc2ccccc2)C(N2CC4CC4C2)CC3)cn1` (centres unmarked) [Example 3, N-[2-({7-[3-Azabicyclo[3.1.0]hex-3-yl]-8-benzyl-5,6,7,8-tetrahydronaphthalen-2-yl}oxy)ethyl]-1-methyl-1H-pyrazole-4-sulfonamide(2E)-but-2-enedioate], the Ki in series [1] was < 10 nM.
For `Cn1cnc(S(=O)(=O)NCCOc2ccc3c(c2)C(Cc2ccccc2F)C(N2CC4CC4C2)CC3)c1` (centres unmarked) [Example 5, N-(2-{[7-[3-Azabicyclo[3.1.0]hex-3-yl]-8-(2-fluorobenzyl)-5,6,7,8-tetrahydronaphthalen-2-yl]oxy}ethyl)-1-methyl-1H-imidazole-4-sulfonamide], the Ki in series [1] was < 1000 nM.
Consider `CCS(=O)(=O)NCc1ccc2c(c1)C(Cc1ccccc1)C(NC1(C#N)COC1)CC2` (centres unmarked) [Example 6, N-((8-Benzyl-7-(3-cyanooxetan-3-ylamino)-5,6,7,8-tetrahydronaphthalen-2-yl)methyl)ethanesulfonamide], for which the Ki in series [1] was < 1000 nM.
With `CCCS(=O)(=O)NCc1ccc2c(c1)C(Cc1ccccc1)C(NC1(C#N)COC1)CC2` (centres unmarked) [Example 7, N-((8-Benzyl-7-(3-cyanooxetan-3-ylamino)-5,6,7,8-tetrahydronaphthalen-2-yl)methyl)propane-1-sulfonamide], the Ki in series [1] was < 1000 nM.
Take `N#CC1(NC2CCc3ccc(CNS(=O)(=O)C4CCC4)cc3C2Cc2ccccc2)COC1` (centres unmarked) [Example 8, N-((8-Benzyl-7-(3-cyanooxetan-3-ylamino)-5,6,7,8-tetrahydronaphthalen-2-yl)methyl)cyclobutanesulfonamide]: the Ki in series [1] was < 1000 nM.
On to `N#CC1(NC2CCc3ccc(CNS(=O)(=O)CC4CC4)cc3C2Cc2ccccc2)COC1` (centres unmarked) [Example 9, N-((8-Benzyl-7-(3-cyanooxetan-3-ylamino)-5,6,7,8-tetrahydronaphthalen-2-yl)methyl)-1-cyclopropylmethanesulfonamide], for which the Ki in series [1] was < 100 nM. In series [2], the efflux ratio at 1 h, 1 μM turned out to be 3.5.
`Cn1cnc(S(=O)(=O)NCCOc2cc3c(cc2C#N)CCC(N2CC4CC4C2)C3Cc2ccccc2)c1` (centres unmarked) [Example 10, N-[2-({7-[3-Azabicyclo[3.1.0]hex-3-yl]-8-benzyl-3-cyano-5,6,7,8-tetrahydronaphthalen-2-yl}oxy)ethyl]-1-methyl-1H-imidazole-4-sulfonamide(2E)-but-2-enedioate]: the Ki in series [1] was < 1000 nM.
